For one experiment, the system named is CD4^+ splenocytes. Description: Proliferation assay of CD4+ splenocytes from hemophilia A mice exposed to human fVIII. In kind it is cell-based, mouse. The settings on record: for proliferative response, ^3H-thymidine incorporation (FIG. 2): CD4^+ splenocytes from hemophilia A mice immunized with human fVIII, representative experiment; for proliferative response of pooled CD4^+ splenocytes: hemophilia A mice immunized by multiple subcutaneous injections of 5-10 μg recombinant human fVIII in Freund's adjuvant, four independent groups. As to the method:
Mice were treated up to 10 times intravenously with 1 μg of purified recombinant human fVIII. CD8^+ depleted spleen cells (so as to leave only CD4^+ T cells; hereafter referred to as “CD4^+ splenocytes”) were used in proliferation assays to test the response to increasing concentrations of fVIII (5-20 nM) and to pools of overlapping synthetic peptides, spanning the sequence of the individual the fVIII domains (fVIII domain pools). Also, the cytokines secreted by CD4^+ splenocytes, after challenge in vitro with fVIII, were determined. The anti-fVIII antibody was measured in the sera as well as their IgG subclass (by ELISA). The inhibitors were measured by the Bethesda assay (Kasper et al., 1975).
Epitope Repertoire on Human fVIII Recognized be CD4^+ Cells from Hemophilia A Mice. The epitope repertoire of the CD4^+ cells sensitized to human fVIII in hemophilia A mice was examined. Mice were immunized by multiple subcutaneous injections of 5-10 μg recombinant human fVIII, emulsified in Freund's adjuvant. This ensured a stronger sensitization of the CD4^+ cells than that obtained after intravenous administration of fVIII. The use of CD4+ splenocytes from mice strongly sensitized to fVIII increases the chances of identifying a comprehensive CD4^+ repertoire, because the CD4^+ cells recognizing individual epitopes on an antigen are scarce among unselected CD4^+ splenocytes.
Four independent groups of 2 to 4 hemophilia A mice were immunized. For each group their CD4^+ splenocytes were pooled, and tested for their proliferative response to fVIII, and to the individual synthetic peptides spanning the sequence of human fVIII. Because of the large number of peptides, all the peptides were tested only in one experiment. In two experiments, peptides spanning the A and C domains were tested. In a fourth experiment, only peptides spanning the Al domain were tested.

Another experiment relates to CD4^+ blood lymphocytes. Put plainly: 5 day proliferation assay of CD4+ blood lymphocytes with individual A3 and C2 peptides. In kind it is cell-based, human. The conditions noted are these: for individual A3 peptides recognized by both patients (FIG. 4): hemophilia A patients with inhibitors # 5 and # 8, peptide 2 μg. An excerpt: Subiects. Six HIV negative severe hemophilia A patients (3 with inhibitors and 3 without), 4 acquired hemophilia patients (Table 4) and 6 healthy subjects (3 men and 3 women, 34-48 years old) were studied. The acquired hemophilia patients had not received fVIII during the period of time when we studied their CD4^+ response to the fVIII peptides. Among hemophilia A patients, patient #8 had received immune tolerance therapy with high doses of fVIII. The last high dose of fVIII administered as part of the immune tolerance therapy was given approximately 8 months before the first experiment reported here. […] Patient #9 received a prophylactic regimen of weekly injections of standard therapeutic doses of fVIII. All other patients were self treated on an as needed basis. In several hemophilic and healthy subjects we tested the response of CD4^+ blood lymphocytes to fVIII peptides on more than one occasion, at intervals that ranged from a few weeks to several months.
Peripheral blood mononuclear cells (PBMC) were isolated from venous blood and depleted them of CD8^+ T cells (Manfredi et al., 1993), using anti-human CD8 antibody (OKT8; Ortho Diagnostic Systems, Raritan, N.J. or Ancell, Bayport, Minn.) and paramagnetic beads coated with goat anti-mouse IgG antibody (PerSeptive Biosystems, Framingham, Mass.). The CD8^+ depleted PBMC (CD4^+ blood lymphocytes) were used for 5 day proliferation assays (Manfredi et al., […]), using sextuplet wells (2×10^5 cells/well; when cell yield was low, a minimum of 1×10^5 cells/well) and the following stimulants: phytohemagglutinin (Sigma; 10 μg/mL), T cell growth factor (Lymphocult; Biotest Diagnostic Corp., Danville, NJ; final concentration of interleukin 2, 10 U/mL), recombinant human fVIII (Baxter, Glendale, Calif. or Bayer, Elkhart, Ind.; 0.5-1 units/mL; normal plasma concentration: I unit/mL), and the synthetic fVIII peptides, both individually and in pools as described above (final concentration 2 μg/mL of each peptide). Sextuplet wells cultured without any stimulus provided the basal proliferation rate of the cells. We measured cell proliferation from the incorporation of ^3H-thymidine (1 μCi per well, specific activity 6.7 Ci/mmol; Dupont-NEN, Boston, Mass.), expressed as counts per minute (cpm). When an antigen induced a statistically significant (p<0.05) increase in proliferation (assessed using a two-tailed Student's t test), we calculated the stimulation index (SI: ratio between average cpm of cultures in the presence of the antigen and average basal proliferation of the same cells). The use of SI normalizes results, and allows comparison of experiments carried out at different times, and with different subjects.

[1] abbreviates: healthy subject #8, second experiment.

As for “peptide 601-620: 20-residue synthetic peptide, residues 601-620 of the A2 domain of human fVIII (VQLEDPEFQASNIMHSINGY; UniProt P00451 620-639, looked up, fragment)”, in the experiment with CD4^+ splenocytes, the “proliferative response, ^3H-thymidine incorporation (FIG. 2)” value (“proliferative response … (FIG. 2)” for short) is given as “recognized”; the “proliferative response of pooled CD4^+ splenocytes” value was “recognized clearly and consistently in all or most experiments”.

“FTPVVNSLDPPLLTRYLRIH (listed as Homo sapiens) [2291-2310]”: the “C2 peptides that elicited the strongest response of CD4^+ lymphocytes” value in the experiment with CD4^+ blood lymphocytes (Healthy Subjects, Subject 9, t = 1) is on record as 2291-2310.

With “AEPRKNFVKPNETKTYFWKV (listed as Homo sapiens) [1801-1820]”, the “individual A3 peptides recognized by both patients (FIG. 4)” value in the experiment with CD4^+ blood lymphocytes was “recognized also by patient # 8”.

Consider “FDCKAWAYFSDVDLEKDVHS (listed as Homo sapiens) [1831-1850]”, for which the “A3 peptides that elicited the strongest response of CD4^+ lymphocytes” value in the experiment with CD4^+ blood lymphocytes (Acquired Hemophilia, Patient 1, t = 2) is listed as 1831-1850. For the same substance, the “recognition by CD4^+ cells” value in the experiment on CD4^+ blood lymphocytes (patients #1 and #2 (acquired hemophilia), in some experiments) was “recognized”.

Consider “MESKAISDAQITASSYFTNM (listed as Homo sapiens) [2181-2200]”, for which the “C2 peptides that elicited the strongest response of CD4^+ lymphocytes” value in the experiment on CD4^+ blood lymphocytes (Hemophilia A with Inhibitors, Patient 6, t = 1) was 2181-2200.

In the case of “NENIHSIHFSGHVFTVRKKE (listed as Homo sapiens) [1951-1970]”, the “individual A3 peptides recognized by both patients (FIG. 4)” value in the experiment on CD4^+ blood lymphocytes is “recognized also by patient # 8”.

In the case of “CLIGEHLHAGMSTLFLVYSN (listed as Homo sapiens) [2001-2020]”, in the experiment on CD4^+ blood lymphocytes (Hemophilia A without Inhibitors, Patient 9, t = 1), the “A3 peptides that elicited the strongest response of CD4^+ lymphocytes” value was 2001-2020.

Turning to “LHLQGRSNAWRPQVNNPKEW (listed as Homo sapiens) [2211-2230]”, in the experiment on CD4^+ blood lymphocytes (Hemophilia A without Inhibitors, Patient 9, t = 2), the “C2 peptides that elicited the strongest response of CD4^+ lymphocytes” value is given as 2211-2230.

Take “2141-2160: 20-residue synthetic peptide, residues 2141-2160 of the C1 domain of human fVIII (NPPIIARYIRLHPTHYSIRS; UniProt P00451 2160-2179, looked up, fragment)”: in the experiment on CD4^+ splenocytes, the “proliferative response of pooled CD4^+ splenocytes” value is “recognized clearly and consistently in all or most experiments”.

Regarding “IAAVERLWDYGMSSSPHVLR (listed as Homo sapiens) [peptide 1701-1720]”, the “recognition by CD4^+ cells” value was “recognized strongly” in the experiment with CD4^+ blood lymphocytes (setting [1]); “recognized” with CD4^+ blood lymphocytes (patient #2, another experiment); “recognized” with CD4^+ blood lymphocytes (patient #8, another experiment). Further, the “proliferative response … (FIG. 2)” value in the experiment with CD4^+ splenocytes is listed as “recognized”. In the experiment on CD4^+ splenocytes, the “proliferative response of pooled CD4^+ splenocytes” value is “recognized clearly and consistently in all or most experiments”.

Take “GLIGPLLVCHTNTLNPAHGR (listed as Homo sapiens) [1851-1870]”: the “proliferative response … (FIG. 2)” value in the experiment with CD4^+ splenocytes was “recognized”.

For the substance “peptide 71-90: 20-residue synthetic peptide, residues 71-90 of the A1 domain of human fVIII (LLGPTIQAEVYDTVVITLKN; UniProt P00451 90-109, looked up, fragment)”, the “proliferative response of pooled CD4^+ splenocytes” value in the experiment with CD4^+ splenocytes is “recognized clearly and consistently in all or most experiments”.

Turning to “peptide 2131-2150: 20-residue synthetic peptide, residues 2131-2150 of the C1 domain of human fVIII (DSSGIKHNIFNPPIIARYIR; UniProt P00451 2150-2169, looked up, fragment)”, in the experiment on CD4^+ splenocytes, the “proliferative response … (FIG. 2)” value is recorded as “recognized”; the “proliferative response of pooled CD4^+ splenocytes” value is “recognized clearly and consistently in all or most experiments”.

Turning to “GMSSSPHVLRNRAQSGSVPQ (listed as Homo sapiens) [1711-1730]”, the “recognition by CD4^+ cells” value in the experiment with CD4^+ blood lymphocytes (healthy subject #2) is on record as “recognized”.

For “DLNSCSMPLGMESKAISDAQ (listed as Homo sapiens) [peptide 2171-2190]”, the “recognition by CD4^+ cells” value with CD4^+ blood lymphocytes (patient # 8, hemophilia A with inhibitors, C2 peptides) is “recognized”.

On to “531-550: 20-residue synthetic peptide, residues 531-550 of the A2 domain of human fVIII (RYYSSFVNMERDLASGLIGP; UniProt P00451 550-569, looked up, fragment)”, for which, in the experiment with CD4^+ splenocytes, the “proliferative response … (FIG. 2)” value is “recognized”.

On to “YDEDENQSPRSFQKKTRHYF (listed as Homo sapiens) [1681-1700]”, for which, in the experiment on CD4^+ blood lymphocytes (setting [1]), the “recognition by CD4^+ cells” value is given as “recognized strongly”.

“SFQKKTRHYFIAAVERLWDY (listed as Homo sapiens) [peptide 1691-1710]”: in the experiment with CD4^+ blood lymphocytes (8 experiments done with CD4^+ cells from healthy subjects), the “experiments in which the peptide (or one or more peptides of the sequence region) was recognized” value is reported as 7 of the 8. In the experiment with CD4^+ blood lymphocytes (acquired hemophilia patients, not consistent between experiments of the same patient), the “number of acquired hemophilia patients who recognized the peptide or region” value was 1. Also, the “recognition by CD4^+ cells” value with CD4^+ blood lymphocytes (healthy subject #2) is recorded as “did not recognize”; with CD4^+ blood lymphocytes (patient #8, one experiment) it was “recognized”. Also, the “number of hemophilia A patients who strongly recognized the peptide” value in the experiment with CD4^+ blood lymphocytes (hemophilia A patients with inhibitors) is listed as 2; in the experiment with CD4^+ blood lymphocytes (hemophilia A patients without inhibitors), 1; with CD4^+ blood lymphocytes (hemophilia A patients, in only one of the experiments of the same patient), 3.

Take “FATWSPSKARLHLQGRSNAW (listed as Homo sapiens) [peptide 2201-2220]”: in the experiment on CD4^+ splenocytes, the “proliferative response … (FIG. 2)” value is recorded as “recognized”; the “proliferative response of pooled CD4^+ splenocytes” value was “recognized clearly and consistently in all or most experiments”.

Take “521-540: 20-residue synthetic peptide, residues 521-540 of the A2 domain of human fVIII (PTKSDPRCLTRYYSSFVNME; UniProt P00451 540-559, looked up, fragment)”: the “proliferative response … (FIG. 2)” value in the experiment on CD4^+ splenocytes is “recognized”.

Regarding “VEMKKEDFDIYDEDENQSPR (listed as Homo sapiens) [1671-1690]”, the “recognition by CD4^+ cells” value with CD4^+ blood lymphocytes (patient #8, another experiment) is reported as “recognized”.
